Experimental data as given in patent US8101352B2, “Detection of ESR1 amplification in breast cancer” (Universitatsklinikum Hamburg-Eppendorf, priority 2006, dated 2012).

Test system: breast cancer patients
Assay: Prognostic relevance of ESR1 alterations in breast cancer treated with Tamoxifen (tissue microarray FISH/IHC with survival analysis)
Assay type: in vivo, human
Excerpt: Contingency table analysis and Chi-square tests were used to study the relationship between histologic tumor type, grade, stage and gene amplification. Survival curves were plotted according to Kaplan-Meier. A log rank test was applied to examine the relationship between gene amplifications and patient survival.
2.1 The general results obtained by CGH were verified by fluorescence in situ hybridization (FISH) using existing tissue microarrays. A breast cancer Prognosis Tissue Microarray containing more than 2517 breast tissues was analyzed. […]
2.3 The TMA sections were treated according to the Paraffin Pretreatment Reagent Kit protocol (Vysis, Downers Grove, Ill.) before hybridization. […] In a second more refined analysis FISH signal numbers of the ESR1 gene and centromere 6 were counted in each tissue spot. […]
3.1 Immunohistochemical detection of the estrogen receptor alpha protein was performed using the above described TMAs and antibody NCL-L-ER-6F11 as a primary antibody (Novocastra, Newcastle, UK). […] In brief, intensity of the estrogen receptor staining was recorded in a 4-step scale (0-3) and the fraction of ER positive tumor cells in a 5-step (1-5) scale. […]

In the case of `CC/C(=C(\c1ccccc1)c1ccc(OCCN(C)C)cc1)c1ccccc1` [Tamoxifen], the “prognosis of Tamoxifen treated patients with ESR1 amplification” value (Tamoxifen monotherapy after surgery, ESR1 amplified versus ER positive by IHC without ESR1 amplification, p<0.0001 (FIG. 4)) is reported as “significantly better” and the “overall survival of patients with ESR1-amplified tumors under anti-estrogen therapy with Tamoxifen” value (compared to patients with tumors not exhibiting ESR1 amplification (FIG. 4)) is reported as “significantly increased”.
